Test [1] deals with Human CB1R (Cannabinoid receptor 1) (Homo sapiens, UniProt P21554). Description: CB-1 in vitro cAMP (HTRF) assay. It counts as cell-based. Conditions: HEK cells, cAMP HTRF, 250 nM forskolin; mean where tested more than once; read-out: CB1 HEK_cAMP EC50. Summed up: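 Intracellular cAMP from HTRF ratio (d2-cAMP vs Eu-cryptate anti-cAMP), converted to nM via per-plate standards, in stable human CB1R HEK-293 cells.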

For test [2], the target named is Human CB2R (Cannabinoid receptor 2) (Homo sapiens, UniProt P34972). Description: CB-2 in vitro cAMP (HTRF) assay. It counts as cell-based. Particulars: HEK cells, cAMP HTRF, 250 nM forskolin; mean where tested more than once; read-out: CB2 HEK_cAMP EC50. In outline: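 HEK-293 cells stably expressing receptor, plated overnight at 4E5 cells/mL, tested with 1/3 serial dilutions of compound in HBSS/HEPES/BSA buffer with 0.5 mM IBMX and forskolin (diluted to 1.5 μM in buffer). cAMP measured by competitive HTRF immunoassay (d2-cAMP, cryptate anti-cAMP), signal inversely proportional to cAMP.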

Molecules are shown by their SMILES. Bounds are passed on as bounds.

Sequence of Human CB1R (Cannabinoid receptor 1) (P21554 whole entry): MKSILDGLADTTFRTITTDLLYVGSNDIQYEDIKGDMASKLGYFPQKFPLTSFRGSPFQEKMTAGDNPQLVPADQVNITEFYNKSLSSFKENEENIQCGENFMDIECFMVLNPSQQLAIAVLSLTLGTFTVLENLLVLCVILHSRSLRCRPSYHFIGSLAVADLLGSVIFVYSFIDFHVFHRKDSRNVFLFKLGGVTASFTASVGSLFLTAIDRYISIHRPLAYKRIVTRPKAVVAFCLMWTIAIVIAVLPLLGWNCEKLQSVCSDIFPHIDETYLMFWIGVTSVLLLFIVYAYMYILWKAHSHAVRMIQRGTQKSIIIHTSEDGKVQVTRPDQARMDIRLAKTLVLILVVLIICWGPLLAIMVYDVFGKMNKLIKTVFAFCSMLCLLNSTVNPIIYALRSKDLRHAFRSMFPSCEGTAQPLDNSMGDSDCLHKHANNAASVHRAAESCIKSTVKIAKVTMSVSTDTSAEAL
Sequence of Human CB2R (Cannabinoid receptor 2) (P34972 whole entry): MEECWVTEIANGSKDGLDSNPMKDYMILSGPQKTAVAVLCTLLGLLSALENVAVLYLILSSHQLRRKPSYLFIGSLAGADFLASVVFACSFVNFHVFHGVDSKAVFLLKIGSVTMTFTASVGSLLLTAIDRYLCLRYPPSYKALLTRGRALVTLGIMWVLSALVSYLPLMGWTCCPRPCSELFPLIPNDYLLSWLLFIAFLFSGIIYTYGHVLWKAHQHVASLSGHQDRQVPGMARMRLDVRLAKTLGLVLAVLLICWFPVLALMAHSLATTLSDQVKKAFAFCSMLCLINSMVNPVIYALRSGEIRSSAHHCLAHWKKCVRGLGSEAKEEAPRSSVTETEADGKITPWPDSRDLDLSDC

For `CCc1nc2ccc(C(O)(c3ccc(Cl)cc3)c3ccc(Cl)cc3)cc2n1C1CCN(S(=O)(=O)C(F)(F)F)CC1` [Example 308], the EC50 in test [1] was 0.0636 µM; in test [2], above 10 µM.

On to `FC(F)(F)c1ccc(CCn2c(C3CC3)nc3ccc(C(c4ccc(Cl)cc4)c4ccc(Cl)cc4)cc32)cc1` [Example 309], for which the EC50 in test [1] is 0.0034 µM; in test [2] it was 5.2 µM.

In the case of `CCc1nc2ccc(C(c3ccc(Cl)cc3)c3ccc(Cl)cc3)cc2n1CCc1cccc(Cl)c1` [Example 311], the EC50 in test [1] stood at 0.0172 µM; in test [2], 8.6 µM.

In the case of `CCc1nc2ccc(C(c3ccc(Cl)cc3)c3ccc(Cl)cc3)cc2n1CCc1ccc(C(F)(F)F)cc1` [Example 314], the EC50 worked out at 0.0201 µM in test [1] and 2.79 µM in test [2].

As to `O=S(=O)(N1CCC(n2c(C3CCC3)nc3ccc(C(O)(c4ccc(Cl)cc4)c4ccc(Cl)cc4)cc32)CC1)C(F)(F)F` [Example 319], the EC50 was 0.0225 µM in test [1] and above 10 µM in test [2].

On to `O=S(=O)(N1CCC(n2c(C3CC3)nc3ccc(C(c4ccc(Cl)cc4)c4ccc5c(c4)OCO5)cc32)CC1)C(F)(F)F` (stereo not drawn) [Example 321], for which the EC50 in test [1] came to 0.0062 µM; in test [2] it was 4.03 µM.

On to `O=S(=O)(N1CCC(Cn2cnc3ccc(C(c4ccc(Cl)cc4)c4nccs4)cc32)CC1)C(F)(F)F` (stereo not drawn) [Example 322], for which the EC50 was 0.621 µM in test [1] and above 10 µM in test [2].

Turning to `CCc1nc2ccc(C(c3ccc(Cl)cc3)c3nccs3)cc2n1CC1CCN(S(=O)(=O)C(F)(F)F)CC1` (stereo not drawn) [Example 323], the figures for the EC50 in test [1] and in test [2] were 0.0165 µM and above 10 µM, respectively.

Consider `O=S(=O)(N1CCC(Cn2c(C3CC3)nc3ccc(C(c4ccc(Cl)cc4)c4nccs4)cc32)CC1)C(F)(F)F` (stereo not drawn) [Example 324], for which the concentration for a half-maximal effect (EC50) amounted to 0.0102 µM in test [1] and 3.88 µM in test [2].

In the case of `CC(Cc1ccc(Cl)cc1)n1c(C(F)F)nc2ccc(C(c3ccc(Cl)cc3)c3nccs3)cc21` (stereo not drawn) [Example 329], the values for the EC50 in test [1] and in test [2] were 0.379 µM and above 10 µM, respectively.

Consider `CCOC(=O)N1CCC(n2c(CC)nc3ccc(C(c4ccc(Cl)cc4)c4ccc(Cl)cc4)cc32)CC1` [Example 332], for which the results for the EC50 in test [1] and in test [2] were 0.0147 µM and 4.7 µM, respectively.

Consider `Clc1ccc(CCn2c(C3CC3)nc3ccc(C(c4ccc(Cl)cc4)c4nccs4)cc32)cc1` (stereo not drawn) [Example 338], for which the EC50 in test [1] is 0.0597 µM; in test [2], 4 µM.

Turning to `OC(c1ccc(Cl)cc1)(c1ccc2nc(CC(F)(F)F)n(CCc3cccc(Cl)c3)c2c1)c1nccs1` (stereo not drawn) [Example 339], the values for the EC50 in test [1] and in test [2] were 2.41 µM and above 10 µM, respectively.

On to `FC(F)(F)Cc1nc2ccc(C(c3ccc(Cl)cc3)c3nccs3)cc2n1CCc1cccc(Cl)c1` (stereo not drawn) [Example 340], for which the half-maximal effective concentration (EC50) was 1.44 µM in test [1] and above 10 µM in test [2].

On to `OC(c1ccc(Cl)cc1)(c1ccc2nc(C3CC3)n(C3CCc4ccccc4C3)c2c1)c1nccs1` (stereo not drawn) [Example 341], for which the half-maximal effective concentration (EC50) was 1.33 µM in test [1] and above 10 µM in test [2].

Consider `Clc1ccc(C(c2ccc3nc(C4CC4)n(C4CCc5ccccc5C4)c3c2)c2nccs2)cc1` (stereo not drawn) [Example 342], for which the EC50 in test [1] was 0.184 µM; in test [2] it was above 10 µM.

As to `Cc1nc2ccc(C(c3ccc(Cl)cc3)c3nccs3)cc2n1C1Cc2ccccc2C1` (stereo not drawn) [Example 361], the EC50 in test [1] was 2.02 µM; in test [2] it was above 10 µM.

For `Clc1ccc(C(c2ccc3nc(C4CC4)n(C4Cc5ccccc5C4)c3c2)c2nccs2)cc1` (stereo not drawn) [Example 362], the EC50 was 0.212 µM in test [1] and above 10 µM in test [2].

Consider `OCc1nc2ccc(C(c3ccc(Cl)cc3)c3nccs3)cc2n1-c1cccc(Cl)c1` (stereo not drawn) [Example 374], for which the EC50 is 1.12 µM in test [1] and above 10 µM in test [2].

Regarding `Clc1ccc(C(c2ccc3nc(-c4ccsc4)n(-c4cccc(Cl)c4)c3c2)c2nccs2)cc1` (stereo not drawn) [Example 375], the EC50 in test [1] is 0.755 µM; in test [2] it was above 10 µM.

With `Clc1ccc(C(c2ccc3nc(-c4ccoc4)n(-c4cccc(Cl)c4)c3c2)c2nccs2)cc1` (stereo not drawn) [Example 376], the results for the EC50 in test [1] and in test [2] were 0.441 µM and 0.272 µM, respectively.

These data come from patent US20190031618A1, “BENZIMIDAZOLE DERIVATIVES USEFUL AS CB-1 INVERSE AGONISTS” (Janssen Pharmaceutica NV, priority 2015, published 2019).
